Measurements: US12497365B2, “4-pyridinyl formamide compound or derivative thereof, preparation method therefor, herbicidal composition and use thereof” (Qingdao Kingagroot Chemical Compound Co., Ltd., priority 2019, dated 2025)

Columns and labels:
Assay in all cases: Weeding effect in post-emergence stage
Assay type in all cases: in vivo
Settings in all cases: active ingredient 2000 g/ha, 3 weeks after application, fresh weight control rate
Abutilon theophrasti = system: Abutilon theophrasti
Procedure, shortened: (§1)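 Weeds sown in soil-filled pots under 0.5-2 cm cover were grown in a greenhouse and sprayed at the 2-3 leaf stage, 2 weeks after sowing. Compounds in acetone with Tween 80 and 1.5 liter/ha methyl oleate concentrate were applied at 2000, 1000, 500, 250 or 125 g/ha. Fresh weight control rate was scored after 3 weeks.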

[1] = system: Amaranthus retroflexus L.
Procedure, shortened: as §1

Chenopodium album = system: Chenopodium album
Procedure, shortened: as §1

Descurainia sophia = system: Descurainia sophia
Procedure, shortened: as §1

Structure (SMILES): Cn1nnnc1NC(=O)c1ccnc(-c2ccc3ccccc3c2)c1Cl [Compound 1-112]
- Weeding effect, activity level (growth control rate), Abutilon theophrasti (Abutilon theophrasti): 5 (Level 5: growth control rate is above 85%)
- Weeding effect, activity level (growth control rate), Amaranthus retroflexus L. [1]: 5 (Level 5: growth control rate is above 85%)
- Weeding effect, activity level (growth control rate), Chenopodium album (Chenopodium album): 5 (Level 5: growth control rate is above 85%)
- Weeding effect, activity level (growth control rate), Descurainia sophia (Descurainia sophia): 5 (Level 5: growth control rate is above 85%)

Structure (SMILES): Cn1nnnc1NC(=O)c1ccnc(-c2cncc(F)c2)c1Cl [Compound 1-128]
- Weeding effect, activity level (growth control rate), Abutilon theophrasti (Abutilon theophrasti): 5 (Level 5: growth control rate is above 85%)
- Weeding effect, activity level (growth control rate), Amaranthus retroflexus L. [1]: 5 (Level 5: growth control rate is above 85%)
- Weeding effect, activity level (growth control rate), Chenopodium album (Chenopodium album): 5 (Level 5: growth control rate is above 85%)
- Weeding effect, activity level (growth control rate), Descurainia sophia (Descurainia sophia): 5 (Level 5: growth control rate is above 85%)

Structure (SMILES): Cn1nnnc1NC(=O)c1ccnc(-c2cnc(N)nc2)c1Cl [Compound 1-160]
- Weeding effect, activity level (growth control rate), Abutilon theophrasti (Abutilon theophrasti): 5 (Level 5: growth control rate is above 85%)
- Weeding effect, activity level (growth control rate), Amaranthus retroflexus L. [1]: 5 (Level 5: growth control rate is above 85%)
- Weeding effect, activity level (growth control rate), Chenopodium album (Chenopodium album): 5 (Level 5: growth control rate is above 85%)
- Weeding effect, activity level (growth control rate), Descurainia sophia (Descurainia sophia): 5 (Level 5: growth control rate is above 85%)

Structure (SMILES): Cn1nnnc1NC(=O)c1ccnc(-c2ncc(F)cn2)c1Cl [Compound 1-164]
- Weeding effect, activity level (growth control rate), Abutilon theophrasti (Abutilon theophrasti): 5 (Level 5: growth control rate is above 85%)
- Weeding effect, activity level (growth control rate), Amaranthus retroflexus L. [1]: 5 (Level 5: growth control rate is above 85%)
- Weeding effect, activity level (growth control rate), Chenopodium album (Chenopodium album): 5 (Level 5: growth control rate is above 85%)
- Weeding effect, activity level (growth control rate), Descurainia sophia (Descurainia sophia): 5 (Level 5: growth control rate is above 85%)

Structure (SMILES): Cn1nnnc1NC(=O)c1ccnc(-c2ccnc(F)c2)c1Cl [Compound 1-149]
- Weeding effect, activity level (growth control rate), Abutilon theophrasti (Abutilon theophrasti): 5 (Level 5: growth control rate is above 85%)
- Weeding effect, activity level (growth control rate), Amaranthus retroflexus L. [1]: 5 (Level 5: growth control rate is above 85%)
- Weeding effect, activity level (growth control rate), Chenopodium album (Chenopodium album): 5 (Level 5: growth control rate is above 85%)
- Weeding effect, activity level (growth control rate), Descurainia sophia (Descurainia sophia): 5 (Level 5: growth control rate is above 85%)

Structure (SMILES): Cn1nnnc1NC(=O)c1ccnc(-c2cncc(C#N)c2)c1Cl [Compound 1-133]
- Weeding effect, activity level (growth control rate), Abutilon theophrasti (Abutilon theophrasti): 5 (Level 5: growth control rate is above 85%)
- Weeding effect, activity level (growth control rate), Amaranthus retroflexus L. [1]: 5 (Level 5: growth control rate is above 85%)
- Weeding effect, activity level (growth control rate), Chenopodium album (Chenopodium album): 5 (Level 5: growth control rate is above 85%)
- Weeding effect, activity level (growth control rate), Descurainia sophia (Descurainia sophia): 5 (Level 5: growth control rate is above 85%)

Structure (SMILES): Cn1nnnc1NC(=O)c1ccnc(-c2ccc(F)c(C(F)(F)F)c2)c1Cl [Compound 1-85]
- Weeding effect, activity level (growth control rate), Abutilon theophrasti (Abutilon theophrasti): 5 (Level 5: growth control rate is above 85%)
- Weeding effect, activity level (growth control rate), Amaranthus retroflexus L. [1]: 5 (Level 5: growth control rate is above 85%)
- Weeding effect, activity level (growth control rate), Chenopodium album (Chenopodium album): 5 (Level 5: growth control rate is above 85%)
- Weeding effect, activity level (growth control rate), Descurainia sophia (Descurainia sophia): 5 (Level 5: growth control rate is above 85%)

Structure (SMILES): Cn1nnnc1NC(=O)c1ccnc(-c2cccc(Cl)c2)c1Cl [Compound 1-19]
- Weeding effect, activity level (growth control rate), Abutilon theophrasti (Abutilon theophrasti): 5 (Level 5: growth control rate is above 85%)
- Weeding effect, activity level (growth control rate), Amaranthus retroflexus L. [1]: 5 (Level 5: growth control rate is above 85%)
- Weeding effect, activity level (growth control rate), Chenopodium album (Chenopodium album): 5 (Level 5: growth control rate is above 85%)
- Weeding effect, activity level (growth control rate), Descurainia sophia (Descurainia sophia): 5 (Level 5: growth control rate is above 85%)

Structure (SMILES): Cn1nnnc1NC(=O)c1ccnc(-c2ccc(F)nc2)c1Cl [Compound 1-132]
- Weeding effect, activity level (growth control rate), Abutilon theophrasti (Abutilon theophrasti): 5 (Level 5: growth control rate is above 85%)
- Weeding effect, activity level (growth control rate), Amaranthus retroflexus L. [1]: 5 (Level 5: growth control rate is above 85%)
- Weeding effect, activity level (growth control rate), Chenopodium album (Chenopodium album): 5 (Level 5: growth control rate is above 85%)
- Weeding effect, activity level (growth control rate), Descurainia sophia (Descurainia sophia): 5 (Level 5: growth control rate is above 85%)

Structure (SMILES): Cn1nnnc1NC(=O)c1ccnc(-c2ccc(F)cc2)c1C1CC1 [Compound 1-221]
- Weeding effect, activity level (growth control rate), Abutilon theophrasti (Abutilon theophrasti): 5 (Level 5: growth control rate is above 85%)
- Weeding effect, activity level (growth control rate), Amaranthus retroflexus L. [1]: 5 (Level 5: growth control rate is above 85%)
- Weeding effect, activity level (growth control rate), Chenopodium album (Chenopodium album): 5 (Level 5: growth control rate is above 85%)
- Weeding effect, activity level (growth control rate), Descurainia sophia (Descurainia sophia): 5 (Level 5: growth control rate is above 85%)

Structure (SMILES): Cn1nnnc1NC(=O)c1ccnc(-c2ccc(C#N)c(F)c2)c1Cl [Compound 1-79]
- Weeding effect, activity level (growth control rate), Abutilon theophrasti (Abutilon theophrasti): 5 (Level 5: growth control rate is above 85%)
- Weeding effect, activity level (growth control rate), Amaranthus retroflexus L. [1]: 5 (Level 5: growth control rate is above 85%)
- Weeding effect, activity level (growth control rate), Chenopodium album (Chenopodium album): 5 (Level 5: growth control rate is above 85%)
- Weeding effect, activity level (growth control rate), Descurainia sophia (Descurainia sophia): 5 (Level 5: growth control rate is above 85%)

Structure (SMILES): COC(=O)c1ccc(-c2nccc(C(=O)Nc3nnnn3C)c2Cl)cc1 [Compound 1-40]
- Weeding effect, activity level (growth control rate), Abutilon theophrasti (Abutilon theophrasti): 5 (Level 5: growth control rate is above 85%)
- Weeding effect, activity level (growth control rate), Amaranthus retroflexus L. [1]: 5 (Level 5: growth control rate is above 85%)
- Weeding effect, activity level (growth control rate), Chenopodium album (Chenopodium album): 5 (Level 5: growth control rate is above 85%)
- Weeding effect, activity level (growth control rate), Descurainia sophia (Descurainia sophia): 5 (Level 5: growth control rate is above 85%)

Structure (SMILES): Cn1nnnc1NC(=O)c1ccnc(-c2ccc(C(F)(F)F)nc2)c1Cl [Compound 1-142]
- Weeding effect, activity level (growth control rate), Abutilon theophrasti (Abutilon theophrasti): 5 (Level 5: growth control rate is above 85%)
- Weeding effect, activity level (growth control rate), Amaranthus retroflexus L. [1]: 5 (Level 5: growth control rate is above 85%)
- Weeding effect, activity level (growth control rate), Chenopodium album (Chenopodium album): 5 (Level 5: growth control rate is above 85%)
- Weeding effect, activity level (growth control rate), Descurainia sophia (Descurainia sophia): 5 (Level 5: growth control rate is above 85%)

Structure (SMILES): Cn1nnnc1NC(=O)c1ccnc(-c2ccc(F)cc2)c1C#N [Compound 1-213]
- Weeding effect, activity level (growth control rate), Abutilon theophrasti (Abutilon theophrasti): 5 (Level 5: growth control rate is above 85%)
- Weeding effect, activity level (growth control rate), Amaranthus retroflexus L. [1]: 5 (Level 5: growth control rate is above 85%)
- Weeding effect, activity level (growth control rate), Chenopodium album (Chenopodium album): 5 (Level 5: growth control rate is above 85%)
- Weeding effect, activity level (growth control rate), Descurainia sophia (Descurainia sophia): 5 (Level 5: growth control rate is above 85%)

Structure (SMILES): Cn1cc(-c2nccc(C(=O)Nc3nnnn3C)c2Cl)cn1 [Compound 1-168]
- Weeding effect, activity level (growth control rate), Abutilon theophrasti (Abutilon theophrasti): 5 (Level 5: growth control rate is above 85%)
- Weeding effect, activity level (growth control rate), Amaranthus retroflexus L. [1]: 5 (Level 5: growth control rate is above 85%)
- Weeding effect, activity level (growth control rate), Chenopodium album (Chenopodium album): 5 (Level 5: growth control rate is above 85%)
- Weeding effect, activity level (growth control rate), Descurainia sophia (Descurainia sophia): 5 (Level 5: growth control rate is above 85%)

Structure (SMILES): Cn1nnnc1NC(=O)c1ccnc(-c2cccc(C#N)c2)c1Cl [Compound 1-49]
- Weeding effect, activity level (growth control rate), Abutilon theophrasti (Abutilon theophrasti): 5 (Level 5: growth control rate is above 85%)
- Weeding effect, activity level (growth control rate), Amaranthus retroflexus L. [1]: 5 (Level 5: growth control rate is above 85%)
- Weeding effect, activity level (growth control rate), Chenopodium album (Chenopodium album): 5 (Level 5: growth control rate is above 85%)
- Weeding effect, activity level (growth control rate), Descurainia sophia (Descurainia sophia): 5 (Level 5: growth control rate is above 85%)
